ChEMBL document CHEMBL1149506, “Synthesis and in vitro biological evaluation of aryl boronic acids as potential inhibitors of factor XIa” (Bioorg Med Chem Lett, 2006)
Where a name gives a salt, the structure may show the parent alone.

Legend:
Prothrombin = Prothrombin (Homo sapiens, UniProt P00734); test: Inhibition of thrombin
Coagulation factor XI = Coagulation factor XI (Homo sapiens, UniProt P03951); test: Inhibition of f11a
Homo sapiens [1] = species: Homo sapiens; test: Selectivity for f11a over trypsin
Trypsin = Trypsin (Homo sapiens, UniProt P07477+P07478+P35030); test: Inhibition of trypsin; assay type: protein assay
Coagulation factor X = Coagulation factor X (Homo sapiens, UniProt P00742); test: Inhibition of f10a
Homo sapiens [2] = species: Homo sapiens; test: Selectivity for f11a over f10a

Sequence of Coagulation factor XI (P03951 19-387 limits assumed): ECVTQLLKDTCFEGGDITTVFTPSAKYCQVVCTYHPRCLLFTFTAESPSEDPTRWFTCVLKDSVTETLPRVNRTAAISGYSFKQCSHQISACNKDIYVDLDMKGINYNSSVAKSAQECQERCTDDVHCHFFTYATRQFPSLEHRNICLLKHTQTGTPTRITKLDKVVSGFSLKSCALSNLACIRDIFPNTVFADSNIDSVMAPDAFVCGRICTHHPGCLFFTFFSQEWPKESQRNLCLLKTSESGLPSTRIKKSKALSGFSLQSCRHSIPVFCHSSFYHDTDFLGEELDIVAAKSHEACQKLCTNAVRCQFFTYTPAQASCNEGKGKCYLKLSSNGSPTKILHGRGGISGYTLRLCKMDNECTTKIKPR
Sequence of Coagulation factor XI (P03951 388-625 limits assumed): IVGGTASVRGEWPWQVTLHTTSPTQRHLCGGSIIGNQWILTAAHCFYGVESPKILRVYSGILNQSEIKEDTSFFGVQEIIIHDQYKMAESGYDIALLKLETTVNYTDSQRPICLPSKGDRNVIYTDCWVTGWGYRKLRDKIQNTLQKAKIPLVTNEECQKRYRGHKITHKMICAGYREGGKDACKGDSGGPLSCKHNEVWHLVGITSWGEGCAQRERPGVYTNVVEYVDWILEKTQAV
Sequence of Coagulation factor X (P00742 41-179 limits assumed): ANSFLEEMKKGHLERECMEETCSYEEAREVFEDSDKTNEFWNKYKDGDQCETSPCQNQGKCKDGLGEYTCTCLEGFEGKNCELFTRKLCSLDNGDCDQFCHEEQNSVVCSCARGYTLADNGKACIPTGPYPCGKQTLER
Sequence of Coagulation factor X (P00742 235-488 limits assumed): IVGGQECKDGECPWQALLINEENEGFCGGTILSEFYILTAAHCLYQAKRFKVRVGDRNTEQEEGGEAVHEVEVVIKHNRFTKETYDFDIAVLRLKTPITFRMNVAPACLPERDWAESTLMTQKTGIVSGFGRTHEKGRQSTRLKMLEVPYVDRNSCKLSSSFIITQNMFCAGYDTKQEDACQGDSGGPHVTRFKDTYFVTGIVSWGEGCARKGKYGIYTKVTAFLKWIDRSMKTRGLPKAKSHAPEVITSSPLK

IC50 (Prothrombin) [µM] | IC50 (Coagulation factor XI) [µM] | Selectivity ratio (Homo sapiens [1]) | IC50 (Trypsin) [µM] | IC50 (Coagulation factor X) [µM] | Selectivity ratio (Homo sapiens [2]) | Structure (SMILES)
129 | 24.7 | 10 | > 200 | > 200 | 10 | CC1(C)OB(c2ccc(CN=C(N)N)cc2)OC1(C)C
5.5 | 5.9 | – | 2.3 | 129 | – | CC1(C)OB(c2ccc(NC(=N)N)cc2)OC1(C)C.O=C(O)C(F)(F)F
30.8 | 7.3 | 3 | 20.3 | 175 | 25 | CC1(C)OB(c2ccc(CCN=C(N)N)cc2)OC1(C)C.O=C(O)C(F)(F)F
– | 77.3 | – | – | – | – | NCc1ccc(B(O)O)cc1
146 | 22 | 10 | > 200 | > 200 | 10 | N=C(N)NCc1ccc(B(O)O)cc1.O=C(O)C(F)(F)F
– | 120 | – | – | – | – | N=C(N)c1ccccc1 [BENZAMIDINE HYDROCHLORIDE]
12.3 | 1.4 | 200 | > 200 | 43.6 | 30 | CC1(C)OB(c2ccc(C(NC(=N)N)OC(=O)c3cccnc3)cc2)OC1(C)C.O=C(O)C(F)(F)F (stereo not given)
